Several values for one entry are separate records, joined by “and”; a condition that tells them apart may be missing. Equal values may be shown once. Toxic doses and inconclusive results are not listed. No stated cut-off is given here; in the data, active means T/C of 150% or more; inactive means T/C below 125%.
Tested on: L1210 leukemia ip in BDF1 mice, survival T/C
Assay: NCI In Vivo Anticancer Drug Screen. Data for tumor model L1210 Leukemia (intraperitoneal) in B6D2F1 (BDF1) mice
Details: endpoint: mean survival time, higher = longer survival
In short: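 Transplantable tumor model; survival measured in treated vs vehicle control mice. Value = treated/control.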

[1] = dose: 25.0 mg/kg/injection, schedule: Q01DX009 (ip), vehicle: saline with Tween-80
[2] = dose: 50.0 mg/kg/injection, schedule: Q01DX009 (ip), vehicle: saline with Tween-80
[3] = dose: 200.0 mg/kg/injection, schedule: Q01DX009 (ip), vehicle: saline with Tween-80
[4] = dose: 100.0 mg/kg/injection, schedule: Q04DX003 (ip), vehicle: saline with Tween-80
[5] = dose: 200.0 mg/kg/injection, schedule: Q04DX003 (ip), vehicle: saline with Tween-80
[6] = dose: 100.0 mg/kg/injection, schedule: Q01DX009 (ip), vehicle: saline with Tween-80
[7] = dose: 400.0 mg/kg/injection, schedule: Q01DX009 (ip), vehicle: saline with Tween-80
[8] = dose: 100.0 mg/kg/injection, schedule: Q04DX003 (ip), vehicle: other

Measured: T/C

Nc1cnccc1NCCc1cccc(O)c1
inactive: dose: 12.5 mg/kg/injection, schedule: Q01DX009 (ip), vehicle: saline with Tween-80 97 % of control | [1] 103 % of control | [2] 89 % of control | [3] 88 % of control

Nc1ccc(S(=O)(=O)C(Cl)c2ccccc2)cc1 (stereo unspecified)
inactive: dose: 100.0 mg/kg/injection, schedule: Q01DX001 (ip), vehicle: saline 104 % of control | dose: 200.0 mg/kg/injection, schedule: Q01DX001 (ip), vehicle: saline 102 % of control | dose: 400.0 mg/kg/injection, schedule: Q01DX001 (ip), vehicle: saline 104 % of control

NC(=O)C1CC=CCC1C(=O)O (stereo unspecified)
inactive: dose: 100.0 mg/kg/injection, schedule: Q01DX009 (ip), vehicle: other 88 % of control | dose: 200.0 mg/kg/injection, schedule: Q01DX009 (ip), vehicle: other 100 % of control | dose: 400.0 mg/kg/injection, schedule: Q01DX009 (ip), vehicle: other 92 % of control

O=C(C=C(C(F)(F)F)C(F)(F)F)c1ccc(-c2ccccc2)cc1
inactive: [1] 98 % of control | [2] 98 % of control | dose: 50.0 mg/kg/injection, schedule: Q04DX003 (ip), vehicle: saline with Tween-80 92 % of control | [4] 87 % of control | [5] 86 % of control

O=[N+]([O-])c1ccc(Oc2c(Cl)cc(Cl)cc2Cl)c([N+](=O)[O-])c1
inactive: dose: 222.0 mg/kg/injection, schedule: Q01DX Z (ip), vehicle: methylcellulose (MC) 103 % of control | dose: 333.0 mg/kg/injection, schedule: Q01DX Z (ip), vehicle: methylcellulose (MC) 105 % of control | dose: 500.0 mg/kg/injection, schedule: Q01DX Z (ip), vehicle: methylcellulose (MC) 101 % of control

COc1ccc(NC(=O)/C=C/C(=O)O)cc1
inactive: dose: 100.0 mg/kg/injection, schedule: Q04DX002 (ip), vehicle: Klucel (hydroxypropylcellulose) (HPC) 103 % of control | dose: 200.0 mg/kg/injection, schedule: Q04DX002 (ip), vehicle: Klucel (hydroxypropylcellulose) (HPC) 95 % of control | dose: 400.0 mg/kg/injection, schedule: Q04DX002 (ip), vehicle: Klucel (hydroxypropylcellulose) (HPC) 120 % of control

N#CC(C#N)=Cc1c[nH]c2ccccc12
inactive: [6] 86 % of control | [4] 95 % of control | [3] 89 % of control | [5] 97 % of control | [7] 86 % of control

COc1c(C)c(C)c(OC)c(C(C)O)c1C (stereo unspecified)
inactive: [8] 92 % of control | dose: 200.0 mg/kg/injection, schedule: Q04DX003 (ip), vehicle: other 100 % of control | dose: 400.0 mg/kg/injection, schedule: Q04DX003 (ip), vehicle: other 97 % of control

Cn1ccoc1=NC1CCCCC1
inactive: [4] 96 % of control | [5] 95 % of control

O=C(O)c1ccc(F)c([N+](=O)[O-])c1
inactive: dose: 100.0 mg/kg/injection, schedule: Q04DX002 (ip), vehicle: saline 102 % of control | dose: 200.0 mg/kg/injection, schedule: Q04DX002 (ip), vehicle: saline 113 % of control | dose: 400.0 mg/kg/injection, schedule: Q04DX002 (ip), vehicle: saline 107 % of control

O=C(COc1ccccc1)NC(=S)Nc1ccc(F)c([N+](=O)[O-])c1
inactive: dose: 100.0 mg/kg/injection, schedule: Q01DX001 (ip), vehicle: saline with Tween-80 113 % of control | [6] 100 % of control and 86 % of control | dose: 100.0 mg/kg/injection, schedule: Q04DX002 (ip), vehicle: saline with Tween-80 94 % of control and 119 % of control | dose: 200.0 mg/kg/injection, schedule: Q01DX001 (ip), vehicle: saline with Tween-80 98 % of control | [3] 99 % of control and 116 % of control | dose: 200.0 mg/kg/injection, schedule: Q04DX002 (ip), vehicle: saline with Tween-80 102 % of control and 103 % of control | dose: 400.0 mg/kg/injection, schedule: Q01DX001 (ip), vehicle: saline with Tween-80 95 % of control | [7] 102 % of control | dose: 400.0 mg/kg/injection, schedule: Q04DX002 (ip), vehicle: saline with Tween-80 104 % of control and 87 % of control

CCC1=CC(=O)C(C)=C(C)C1=O
inactive: dose: 25.0 mg/kg/injection, schedule: Q04DX003 (ip), vehicle: other 100 % of control | dose: 50.0 mg/kg/injection, schedule: Q04DX003 (ip), vehicle: other 102 % of control | [8] 97 % of control and 102 % of control

Cc1ccncc1C1CCCN1C (stereo unspecified)
inactive: dose: 25.0 mg/kg/injection, schedule: Q04DX003 (ip), vehicle: saline 94 % of control | dose: 50.0 mg/kg/injection, schedule: Q04DX003 (ip), vehicle: saline 102 % of control | dose: 100.0 mg/kg/injection, schedule: Q04DX003 (ip), vehicle: saline 94 % of control

COCc1nc2c(=S)nc[nH]c2n1N
inactive: dose: 100.0 mg/kg/injection, schedule: Q01DX001 (ip), vehicle: carboxymethylcellulose (CMC) 105 % of control | dose: 200.0 mg/kg/injection, schedule: Q01DX001 (ip), vehicle: carboxymethylcellulose (CMC) 98 % of control

Reference: PubChem BioAssay AID248 (DTP/NCI, 2004)
